Test results published in patent publication US20100280120A1, “COMPOUND INDUCING ANGIOGENESIS RESPONSE IN ISCHAEMIC TISSUES” (Green Cross Therapeutics Private Limited, priority 2007, published 2010).

Tests used:
[1] = tested on: Swiss albino mice; assay: Systemic toxicity in mice: serum toxicity marker enzymes (GOT, GPT, ALP); conditions: doxorubicin 5 mg/kg body weight
Protocol: All animal experiments were performed following ‘Principles of laboratory animal care’ (NIH publication No. 85-23, revised in 1985) as well as specific Indian laws on ‘Protection of Animals’ under the provision o authorized investigators. Swiss albino mice (˜20 g each; 10-12 weeks old; 3 mice in each group) were randomly divided into (i) untreated set (i.v. injected with PBS as vehicle only) and (ii) drug-treated set (Compound of this invention 0.1, 0.3, 1.0, 3.0, 10 and 30 mg/kg body weight) for 14 days. Untreated mice received sterile PBS as carrier vehicle. Doxorubicin (5 mg/kg body weight) was used as positive control for toxicity assays.
For statistical analysis, one-way analysis of variance (ANOVA) was conducted, followed by the Newman-Keuls multiple comparison test. Mean differences with p<0.05 were considered statistically significant.
Hepato and cardio toxicity due to drug regimens are the shortfall in many instances. The serum levels of GOT, GPT and ALP are clinical indicators of drug-induced toxicity. Blood samples were collected from the retro-orbital plexus of normal and the subject compound-treated mice. Total serum glutamate oxaloacetate transaminase ([…]), glutamate pyruvate transaminase (SGPT), and alkaline phosphate were assayed according to standard protocols.
Serum GOT, GPT and ALP activities as a marker of systemic toxicity were measured from blood of untreated or treated mice.

[2] = tested on: primary cells or cell lines from various origin (human cell lines); assay: In vitro toxicity screening of primary cells or cell lines, Trypan blue-exclusion viability test; assay type: cell-based
Protocol: To study the toxic effects of compound, a wide spectrum of primary cells or cell lines from various origin were screened for viability, using Trypan blue-exclusion test. Cells were grown in cultures in DMEM/F-12 (1:1) or RPMI 1640 media supplemented with 10% FBS, insulin (0.1 units/ml), L-glutamine (2 mM), sodium pyruvate (100 μg/ml), non-essential amino acids (100 μM), penicillin (100 units/ml) and streptomycin ([…]). Cells were incubated at 37° C. in a humidified atmosphere of 5% CO2.
Different cells from different origins were cultured in vitro. Various doses of GC-S were added in culture medium. After 24 h number of surviving cells was counted. Each experiment was performed in triplicate and the values agreed well with those of independent experiments

[3] = tested on: binding of human VEGF to its receptor on A549 cells; assay: Angiogenic potential: binding of human VEGF to its receptors on A549 cells (anti-VEGF immunofluorescence, confocal); assay type: cell-based
Protocol: The angiogenic potential of compound was tested by binding human VEGF to its putative receptors. Human lung epithelial cells (A549 which are highly metastatic and therefore angiogenic in nature) were grown on coverslip in DMEM/F-12 (1:1) or RPMI 1640 media supplemented with 10% FBS, insulin (0.1 units/ml), L-glutamine (2 mM), sodium pyruvate (100 μg/ml), non-essential amino acids (100 μM), penicillin (100 units/ml) and streptomycin ([…]). Cells were incubated at 37° C. in a humidified atmosphere of 5% CO2. The pH of the medium was maintained at 6.2 for the binding assay of VEGF to its receptor in the presence of compound. The cells were pre-treated with media alone or with 25 μg/ml compound for 30 min. The cells were then incubated with 10 ng/ml human VEGF for further 30 min at 37° C. in a humidified atmosphere of 5% CO2. The cells were fixed and stained with anti-VEGF antibody coupled with Alexaflour 488. The cells were visualized in Zeiss-confocal microscope.

SMILES	ALP [1] [KA units]	SGOT [1] [IU/dL]	SGPT [1] [IU/dL]	Levels of serum GOT and GPT ([1]; positive control, p<0.05)	Toxicity to cells ([2]; 100 and 200 μg/mL doses, below significant killing)	Toxic effects on cells ([2]; doses 12.5 to 200 μg/mL range)	Percent of cell killing ([2]; up to 50 μg/mL doses, 24 h, Trypan blue exclusion)	Increase of binding of VEGF to its receptor ([3]; A549 cells pre-incubated with 25 μg/ml compound 30 min, then 10 ng/ml human VEGF 30 min, pH 6.2)	VEGF binding on the membrane of normal A549 cell after compound treatment ([3]; A549 cells, compound alone, no added VEGF)
COc1cccc2c1C(=O)c1c(O)c3c(c(O)c1C2=O)C[C@@](O)(C(=O)CO)C[C@@H]3O[C@H]1C[C@H](N)[C@H](O)[C@H](C)O1 [Doxorubicin]	43	79	68	significantly increased	–	–	–	–	–
NCCCCC(N)C(=O)O (stereo not drawn) [Compound of this invention]	–	–	–	–	mild toxicity	no toxic effects	less than 5%	10-15 times	remains unaltered
